Where a SMILES comes first, the peptide text is derived from it. The star is where a group is joined. Myristoyl = CCCCCCCCCCCCCC(=O)*
Legend:
[1] = test system: CD44^hiCD24^lo CSCs in MDA-MB-231 cells; assay: FACS analysis of CD44^hiCD24^lo cancer stem cells in MDA-MB-231 cells treated with P1 analogues; type: cell-based, human; conditions: for Inhibition of CSCs (%) Repeat 1 / Inhibition of CSCs (%) Repeat 2 / Inhibition of CSCs (%) Repeat 3 / CD44^hiCD24^lo CSCs (%) / COI, Live Single CD44^hiCD24^lo CSCs (Cell Count) / Average Inhibition of CSCs (%) / CD44^hiCD24^lo CSCs (%) Repeat 1 / CD44^hiCD24^lo CSCs (%) Repeat 2 / CD44^hiCD24^lo CSCs (%) Repeat 3: 50 μM peptide, 48 hours; for CD44^hiCD24^lo CSCs (%) / COI, Live Single CD44^hiCD24^lo CSCs (Cell Count): n = 1; for Average Inhibition of CSCs (%) / CD44^hiCD24^lo CSCs (%) Repeat 1 / CD44^hiCD24^lo CSCs (%) Repeat 2 / CD44^hiCD24^lo CSCs (%) Repeat 3: n = 3
Protocol: Analogues of P1 (Table 6) were designed and synthesized in accordance with the procedure of Example 5. The ability of these analogues to inhibit cancer stem cells was determined using FACS analysis on MDA-MB-231 cells, which constitutively contain approximately 90% CD44^hiCD24^lo cancer stem cells, treated with the peptides.
(§1) Non-adherent cells were removed during the washing steps.

MDA-MB-231 cells = type: cell-based, human; conditions: for COI (Cell Count) / COI, Live Single Cells (Cell Count) / COI, Single (Cell Count) / Total Cell Count: 50 μM peptide, 48 hours, n = 1; for killing of total MDA-MB-231 cells: not only the CSCs
Text: as §1

[2] = test system: CD44^hiCD24^lo CSCs in MCF7 cells; assay: FACS analysis of CD44^hiCD24^lo CSCs in MCF7 cells; type: cell-based, human; conditions: 50 μM peptide, 48 hours
Protocol: (§2) P1 Analogues were synthesized in accordance with the procedure of Example 5. 4×10^4 MDA-MB-231 cells or 1×10^4 induced or non-induced MCF7 cells were seeded in a 12 well plate with 1 mL complete media overnight. Induced MCF7 cells were prepared by stimulating cells with PMA/TGF-β and incubating for 12 hours. Cells were treated with 50 μM test peptide (dissolved in water) for 48 hours. Cells were then washed twice with 1 mL PBS and harvested by trypsinisation. Non-adherent cells were removed during the washing steps. Adherent cells were collected, and were subsequently stained with anti-human CD44, CD24 and Hoechst 33342 antibodies on ice for 30 mins. FACS was performed on BD FACS LSRII to measure the percentage of CD44^hiCD24^lo CSCs by dividing CD44^hiCD24^lo events by total live cell counts (Hoechst negative population) (as described in Fillmore and Kuperwasser (2007) Breast Cancer Res, 9: 303). The percentage of viable cells was calculated by dividing total live cell events by total single cells as described previously (Siemann and Keng (1986), Cancer Res, 46: 3556-3559).

MCF7 cells = conditions: MCF7 cells, 50 μM peptide, 48 hours
Protocol: as §2

induced MCF7 cells = assay: FACS CSC inhibition in induced MCF7 cells; type: cell-based, human; conditions: induced MCF7 cells (PMA/TGF-β), 50 μM peptide, 48 hours
Protocol: as §2
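Throughout, for COI, Live Single Cells (Cell Count): live means Hoechst-negative events among single cells.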

SMILES | Inhibition of CSCs (%) Repeat 1 [1] [%] | Inhibition of CSCs (%) Repeat 2 [1] [%] | Inhibition of CSCs (%) Repeat 3 [1] [%] | CD44^hiCD24^lo CSCs (%) [1] [%] | COI, Live Single CD44^hiCD24^lo CSCs (Cell Count) [1] | Average Inhibition of CSCs (%) [1] [%] | CD44^hiCD24^lo CSCs (%) Repeat 1 [1] [%] | CD44^hiCD24^lo CSCs (%) Repeat 2 [1] [%] | CD44^hiCD24^lo CSCs (%) Repeat 3 [1] [%] | COI (Cell Count) (MDA-MB-231 cells) | COI, Live Single Cells (Cell Count) (MDA-MB-231 cells) | COI, Single (Cell Count) (MDA-MB-231 cells) | Total Cell Count (MDA-MB-231 cells) | killing of total MDA-MB-231 cells (MDA-MB-231 cells) | CD44^hiCD24^lo CSC % [2] [%] | COI/Single Cells/Live/CD44^hiCD24^lo CSCs Count [2] | COI Count (MCF7 cells) | COI/Single Cell Count (MCF7 cells) | COI/Single Cells/Live Count (MCF7 cells) | Total Count (MCF7 cells) | other results
CCCCCCCCCCCCCC(=O)N[C@H](C(=O)N[C@@H](Cc1ccccc1)C(=O)N[C@H](C(=O)N[C@@H](Cc1ccccc1)C(=O)N[C@@H](CCCNC(=N)N)C(=O)N[C@@H](CC(C)C)C(=O)N[C@@H](CCCNC(=N)N)C(=O)N[C@@H](C)C(=O)NCC(=O)N[C@@H](CCCNC(=N)N)C(=O)N[C@@H](CCSC)C(=O)N[C@@H](CCSC)C(=O)N[C@@H](CC(=O)O)C(=O)N[C@H](C(=O)N[C@@H](CCCCN)C(=O)N[C@@H](CCCCN)C(N)=O)C(C)C)[C@@H](C)CC)[C@@H](C)O [Peptide 2815309, Myristoyl-TFIFRLRAGRMMDVKK-NH2] (Myristoyl-TFIFRLRAGRMMDVKK-NH2) | 100.00 | 100.00 | 100.00 | 0.00 | 1 | 100.00 | 0.00 | 0.00 | 0.00 | 74 | 1 | 71 | 4158 | killed the majority of the total MDA-MB-231 cells | 3.35 | 134 | 5425 | 4124 | 4000 | 10000 | ability to inhibit cancer stem cells (CD44^hiCD24^lo CSCs) ([1]; in words): retained the ability to inhibit cancer stem cells; CSC inhibition (%) (induced MCF7 cells): 52.46%
CCCCCCCCCCCCCC(=O)N[C@H](C(=O)N[C@@H](Cc1ccccc1)C(=O)N[C@H](C(=O)N[C@@H](Cc1ccccc1)C(=O)N[C@@H](CCCNC(=N)N)C(=O)N[C@@H](CC(C)C)C(=O)N[C@@H](CCCNC(=N)N)C(=O)N[C@@H](CCCCN)C(=O)NCC(=O)N[C@@H](CCCNC(=N)N)C(=O)N[C@@H](C)C(=O)N[C@@H](CCSC)C(=O)N[C@@H](CC(=O)O)C(=O)N[C@H](C(=O)N[C@@H](CCCCN)C(=O)N[C@@H](CCCCN)C(N)=O)C(C)C)[C@@H](C)CC)[C@@H](C)O [Peptide 2815312, Myristoyl-TFIFRLRKGRAMDVKK-NH2] (Myristoyl-TFIFRLRKGRAMDVKK-NH2) | 100.00 | 100.00 | 100.00 | 0.00 | 0 | 100.00 | 0.00 | 0.00 | 0.00 | 9 | 6 | 7 | 2993 | killed the majority of the total MDA-MB-231 cells | 3.28 | 142 | 5333 | 4517 | 4331 | 10000 | CSC inhibition (%) (induced MCF7 cells): 53.47%
CCCCCCCCCCCCCC(=O)N[C@@H](CC(C)C)C(=O)N[C@H](C(=O)N[C@@H](Cc1ccccc1)C(=O)N[C@H](C(=O)N[C@@H](Cc1ccccc1)C(=O)N[C@@H](CCCNC(=N)N)C(=O)N[C@@H](CC(C)C)C(=O)N[C@@H](CCCNC(=N)N)C(=O)N[C@@H](CCCCN)C(=O)NCC(=O)N[C@@H](CCCNC(=N)N)C(=O)N[C@@H](CCSC)C(=O)N[C@@H](CCSC)C(=O)N[C@@H](CC(=O)O)C(=O)N[C@H](C(=O)N[C@@H](CCCCN)C(=O)N[C@@H](CCCNC(=N)N)C(N)=O)C(C)C)[C@@H](C)CC)[C@@H](C)O [Peptide 2853844, Myristoyl-LTFIFRLRKGRMMDVKR-NH2] (Myristoyl-LTFIFRLRKGRMMDVKR-NH2) | 80.13 | 89.73 | 78.08 | 10.61 | 7 | 82.65 | 17.81 | 9.21 | 19.67 | 147 | 66 | 101 | 2094 | – | – | – | – | – | – | – | –
CCCCCCCCCCCCCC(=O)N[C@@H](CC(C)C)C(=O)N[C@H](C(=O)N[C@@H](Cc1ccccc1)C(=O)N[C@H](C(=O)N[C@@H](Cc1ccccc1)C(=O)N[C@@H](CCCNC(=N)N)C(=O)N[C@@H](CC(C)C)C(=O)N[C@@H](CCCNC(=N)N)C(=O)N[C@@H](CCCCN)C(=O)NCC(=O)N[C@@H](CCCNC(=N)N)C(=O)N[C@@H](CCSC)C(=O)N[C@@H](CCSC)C(=O)N[C@@H](CC(=O)O)C(=O)N[C@H](C(=O)N[C@@H](CCCCN)C(=O)N[C@@H](CCC(=O)O)C(N)=O)C(C)C)[C@@H](C)CC)[C@@H](C)O [Peptide 2853845, Myristoyl-LTFIFRLRKGRMMDVKE-NH2] (Myristoyl-LTFIFRLRKGRMMDVKE-NH2) | 15.69 | 19.72 | 17.64 | 65.10 | 2612 | 17.69 | 75.56 | 72.02 | 73.91 | 4600 | 4012 | 4111 | 5598 | – | – | – | – | – | – | – | –
CCCCCCCCCCCCCC(=O)N[C@@H](CC(C)C)C(=O)N[C@H](C(=O)N[C@@H](Cc1ccccc1)C(=O)N[C@H](C(=O)N[C@@H](Cc1ccccc1)C(=O)N[C@@H](CCCNC(=N)N)C(=O)N[C@@H](CC(C)C)C(=O)N[C@@H](CCCNC(=N)N)C(=O)N[C@@H](CCCCN)C(=O)NCC(=O)N[C@@H](CCCNC(=N)N)C(=O)N[C@@H](CCSC)C(=O)N[C@@H](CCSC)C(=O)N[C@@H](CC(=O)O)C(=O)N[C@H](C(=O)N[C@@H](CCCCN)C(=O)N[C@@H](CC(C)C)C(N)=O)C(C)C)[C@@H](C)CC)[C@@H](C)O [Peptide 2853846, Myristoyl-LTFIFRLRKGRMMDVKL-NH2] (Myristoyl-LTFIFRLRKGRMMDVKL-NH2) | 61.79 | 63.60 | 62.39 | 27.88 | 87 | 62.59 | 34.25 | 32.66 | 33.75 | 370 | 312 | 330 | 10000 | – | – | – | – | – | – | – | –
CCCCCCCCCCCCCC(=O)N[C@@H](CC(C)C)C(=O)N[C@H](C(=O)N[C@@H](Cc1ccccc1)C(=O)N[C@H](C(=O)N[C@@H](Cc1ccccc1)C(=O)N[C@@H](CCCNC(=N)N)C(=O)N[C@@H](CC(C)C)C(=O)N[C@@H](CCCNC(=N)N)C(=O)N[C@@H](CCCCN)C(=O)NCC(=O)N[C@@H](CCCNC(=N)N)C(=O)N[C@@H](CCSC)C(=O)N[C@@H](CCSC)C(=O)N[C@@H](CC(=O)O)C(=O)N[C@H](C(=O)N[C@@H](CCCCN)C(=O)N[C@@H](Cc1ccc(O)cc1)C(N)=O)C(C)C)[C@@H](C)CC)[C@@H](C)O [Peptide 2853847, Myristoyl-LTFIFRLRKGRMMDVKY-NH2] (Myristoyl-LTFIFRLRKGRMMDVKY-NH2) | 25.89 | 27.27 | 26.71 | 62.59 | 2640 | 26.62 | 66.42 | 65.25 | 65.76 | 5345 | 4218 | 4268 | 10000 | – | – | – | – | – | – | – | –
